How the values were obtained:
[1] = test system: ethanol induced gastric ulcers in the rat; assay: ethanol-induced lesion assay (cytoprotective activity) in rats; assay type: in vivo, rat (male Sprague-Dawley); settings: for % INHIBITION: Table 4
Description: The cytoprotective activity of a compound may be observed in both animals and man by noting the increase resistance of the gastrointestinal mucosa to the noxious effects of strong irritants, for example, the ulcerogenic effects of aspirin or indomethacin.
The ethanol-induced lesion assay is a standard test for cytoprotective activity and is described in an article by A. Robert et al entitled "Cytoprotection By Prostaglandins in Rats" published in Gastroenterology 77:433-443, 1979.
The ethanol-induced lesion assay was used to measure the cytoprotective ability of commercial antacids. Male Sprague-Dawley rats (supplier, Charles River, Willmington, Mass.) weighing between 120-150 g were used. The rats were fasted for 24 hr prior to use (water ad libitum). Before dosing, the animals were placed two per cage and denied water.
Animals were orally, i.e. intragastrically pretreated, one hour before ethanol administration with either RIOPAN Extra Strength suspension, MAALOX suspension, PGE2, or vehicle. One hour after ethanol administration, the rats were sacrificed by CO2 asphyxiation. The stomachs were removed and kept moist with saline until the lesions were scored. Ulcers were scored with the investigator unaware of the treatment groups (single blind). Ulcers were graded according to the following scale: […]
GRADE (Approximate length of lesion)
Absolute ethanol was given orally, 1 ml/rat. RIOPAN Extra Strength, 1080 mg magaldrate per 5 ml (lot 3RM4), and MAALOX, 200 mg Mg(OH)2 +225 mg Al(OH)3 per 5 ml (lot 64700), were administered orally as commercially available suspensions. The dose volume administered was based on the ED50 (ml of antacid/kg, see Table 1).
The dose volume of acidified antacid was adjusted for the volume of 6 N HCl added to the suspension. PGE2 was stored in 100% ethanol and diluted with normal saline before use.
Magaldrate of Example 1 and MAALOX of Example 2 were prepared as described above. The dose volume of nonbuffering antacid was adjusted for the volume of 6 N HCl added to the suspension during preparation. PGE2 was stored in 100% ethanol and diluted with normal saline before use.
The mean ulcer score of each treatment group was compared to the control group and expressed as the percent inhibition of ulcer formation.
The cytoprotective ED50 before and after acidification for the magaldrate of Example 1, referred to in this example as RIOPAN Extra Strength, and for MAALOX of Example 2 was calculated by standard regression analysis of the dose-response data. Confidence limits of 95% were calculated using the statistical differential method.
The spray dried powders of Examples 8 through 15 were tested for cytoprotective activity in the ethanol-induced lesion assay as described in Example 7.
The respective powders were admixed with sufficient water to form a liquid and the animals were dosed 400 milligrams of powder per kilo of body weight […]. in the test.
The experiments were performed using ten rats for each test composition and using the in vivo test procedure described in Example 7. The dose of acidified Extra Strength RIOPAN was selected for the test at 0.46 milliliters per kilogram of rat body weight. Approximately 4.6 times this amount (8 times on a mg/kg basis) was selected for the dose of commercial Extra Strength RIOPAN. Approximately 30 times this amount was selected for each dose of the Wenger et al solutions.
Two experiments were performed using ten rats for each test composition and again using the in vivo test procedure described in Example 7. In these experiments the dose in milliliters per kilogram of rat body weight was equal for each test composition.

[2] = per 5 ml of suspension or liquid; cited from earlier work
[3] = test system: ethanol induced ulcer; settings: Robert et al 1984; cited from earlier work
[4] = test system: gastric mucosa; settings: literature; cited from earlier work
[5] = test system: gastric acid secretion; settings: in vivo; cited from earlier work

In the case of `O.O=S(=O)([O-])[O-].O=S(=O)([O-])[O-].[Al+3].[Al+3].[Al+3].[Al+3].[Al+3].[Mg+2].[Mg+2].[Mg+2].[Mg+2].[Mg+2].[Mg+2].[Mg+2].[Mg+2].[Mg+2].[Mg+2].[OH-].[OH-].[OH-].[OH-].[OH-].[OH-].[OH-].[OH-].[OH-].[OH-].[OH-].[OH-].[OH-].[OH-].[OH-].[OH-].[OH-].[OH-].[OH-].[OH-].[OH-].[OH-].[OH-].[OH-].[OH-].[OH-].[OH-].[OH-].[OH-].[OH-].[OH-]` [magaldrate, aluminum magnesium hydroxide sulfate], the “effect on ethanol induced ulcers (in words)” value ([1]; rat, p.o.) is listed as “inhibit ethanol induced ulcers in rats” and the “acid neutralized / acid neutralization capacity (ANC)” value [2] is listed as 13.5 to 15 mEq.
For `CN/C(=N/CCSCc1nc[nH]c1C)NC#N` [cimetidine], the “protection in the ethanol induced ulcer model” value [3] is listed as “do not protect in this model”.
For `[Cl][Al]([Cl])[Cl]` [aluminum chloride], the “cytoprotective activity (in words)” value ([1]; ethanol-induced gastric lesion model) was “does not exhibit such activity”.
For `CCCCC[C@H](O)/C=C/[C@H]1[C@H](O)CC(=O)[C@@H]1C/C=C\CCCC(=O)O` [PGE2], the “% INHIBITION” value ([1]; dose 25 g/kg p.o. (so in the source)) was 39%, the “% INHIBITION” value ([1]; dose 50 g/kg p.o. (so in the source)) was 63% and the “% INHIBITION” value ([1]; dose 75 g/kg p.o. (so in the source)) was 80%. For the same compound, the “effect on ethanol induced ulcers (in words)” value ([1]; rat, p.o.) was “inhibited ethanol induced ulcer formation” and the “potency of PGE2 relative to acidified RIOPAN Extra Strength or acidified MAALOX” value ([1]; rat, p.o.) was “approximately 1000 times”.
For `CC(C)[N+](C)(CCOC(=O)C1c2ccccc2Oc2ccccc21)C(C)C` [propantheline bromide], the “protection in the ethanol induced ulcer model” value [3] is given as “do not protect in this model”.
In the case of `[OH][Al]([OH])[OH]` [Al(OH)3, aluminum hydroxide], the “gastric cytoprotection (in words)” value [4] is listed as “have cytoprotective properties”.
For `CCCCC[C@H](O)/C=C/[C@@H]1[C@@H](C/C=C\CCCC(=O)O)[C@@H](O)C[C@H]1O` [prostaglandin F2], the “gastric cytoprotection (in words)” value [4] is listed as “does induce gastric cytoprotection” and the “inhibition of gastric acid secretion” value [5] is listed as “does not inhibit gastric acid secretion”.
